Data reported in patent publication US7342137B1, “Cyclohexenone compounds from Antrodia camphorata and application thereof” (Golden Biotechnology Corporation, priority 2007, dated 2008).

Legend:
Format in all cases: cell-based
[1] = tested on: human breast-cancer cells, MCF-7; test: In vitro Taxol add-on study (MTT), MCF-7; settings: Homo sapiens, MCF7, 0.0017 μg/ml Taxol + formula 2
Experimental: (§1) The experiment was also carried out according to NCI anti-cancer drug screen in vitro model. The human breast-cancer cells, MCF-7 and MDA-MB-231 were separately cultivated in media containing fetal calf serum for 24 hours. The proliferated cells were washed once with PBS, then treated with 1× trypsin-EDTA and centrifuged at 1200 rpm for 5 minutes. The supernatant was discarded and the cell pellet was resuspended in 10 ml of fresh culture medium by gently shaking. The cells were placed in a 96-well plate after 0.0017 μg/ml Taxol was added and treated for 72 hours. 4-hydroxy-2,3-dimethoxy-6-methyl-5(3,7,11-trimethyl-dodeca-2,6,10-trienyl)-cyclohex-2-enone obtained from example 1 were added respectively into each of the 96 wells at the following concentrations: 0 μg/ml (the control group); 30, 10, 3, 1, 0.3, 0.1 and 0.03 μg/ml (the experiment group). The cells were incubated at 37° C. in a 5% CO2 incubator for 48 hours. MTT was added in a concentration of 2.5 mg/ml into each well in dark and reacted for 4 hours, followed by the addition of 100 μl of lysis buffer to terminate the reaction. The plates were read on an ELISA reader at wavelength of 570 nm to determine the survival rates.

[2] = tested on: human breast-cancer cells, MDA-MB-231; test: In vitro survival assay (MTT), breast cancer cells MDA-MB-231; settings: 48 hours incubation
Experimental: The NCI anti-cancer drug screen model was adopted to test the anti-cancer effect of the compound from example 1 in the invention. The isolated compound of 4-hydroxy-2,3-dimethoxy-6-methyl-5(3,7,11-trimethyl-dodeca-2,6,10-trienyl)-cyclohex-2-enone from example 1 was added into the culture media of human breast-cancer cells, MCF-7 or MDA-MB-231, for tumor cell survival assay. This assay can be tested with 3-[4,5-dimethylthiazol-2-yl]2,5-diphenyltetrazolium bromide (MTT) assay, which is commonly used to determine cell proliferation, percent of viable cells, and cytotoxicity. MTT is a yellow dye, which can be absorbed by the living cells and be reduced to purplish blue formazan crystals by succinate tetrazolium reductase in mitochondria. Formazan formation can therefore be used to assess and determine the survival rate of cells.
(§2) The human breast-cancer cells, MCF-7 and MDA-MB-231 were separately cultivated in media containing fetal calf serum for 24 hours. The proliferated cells were washed once with PBS, then treated with 1× trypsin-EDTA and centrifuged at 1200 rpm for 5 minutes. The supernatant was discarded and the cell pellet was resuspended in 10 ml of fresh culture medium by gently shaking. The cells were placed in a 96-well plate. […] The plates were read on an ELISA reader at wavelength of 570 nm to determine the survival rates.

[3] = tested on: human prostate cancer cells, DU-145; test: In vitro Taxol add-on study (MTT), prostate cancer cells DU-145; settings: Homo sapiens; DU-145 (0.0043 μg/ml Taxol + formula 2) as printed in Table 6
Experimental: The experiment was also carried out according to NCI anti-cancer drug screen in vitro model. The human prostate cancer cells, LNCaP and DU-145 were separately cultivated in media containing fetal calf serum for 24 hours. The proliferated cells were washed once with PBS, then treated with 1× trypsin-EDTA and centrifuged at 1200 rpm for 5 minutes. The supernatant was discarded and the cell pellet was resuspended in 10 ml of fresh culture medium by gently shaking. The LNCaP cells were treated with 0.0017 μg/ml of Taxol for 72 hours and DU-145 cells were treated with 0.0043 μg/ml of Taxol for 72 hours before placing in a 96-well plate. 4-hydroxy-2,3-dimethoxy-6-methyl-5(3,7,11-trimethyl-dodeca-2,6,10-trienyl)-cyclohex-2-enone obtained from example 1 were added respectively into each of the 96 wells at the following concentrations: 0 μg/ml (the control group); 30, 10, 3, 1, 0.3, 0.1 and 0.03 μg/ml (the experiment group). The cells were incubated at 37° C. in a 5% CO2 incubator for 48 hours. MTT was added in a concentration of 2.5 mg/ml into each well in dark and reacted for 4 hours, followed by the addition of 100 μl of lysis buffer to stop the reaction. The plates were read on an ELISA reader at wavelength of 570 nm to determine the survival rates.

[4] = tested on: human prostate cancer cells, LNCaP; test: In vitro survival assay (MTT), prostate cancer cells LNCaP; settings: 48 hours incubation
Experimental: (§3) The NCI anti-cancer drug screen model was also adopted to test the anti-cancer effect of the compound isolated from example 1 in the present invention. The isolated compound of 4-hydroxy-2,3-dimethoxy-6-methyl-5(3,7,11-trimethyl-dodeca-2,6,10-trienyl)-cyclohex-2-enone from example 1 was added into the culture media of human prostate cancer cells, LNCaP or DU-145, for tumor cell survival assay.
as §2, with “[…]” for “breast-cancer”, “LNCaP” for “MCF-7”, “DU-145,” for “MDA-MB-231”, “plate. Ethanol extracts of Antrodia camphorata (the control group, total extracts of Antrodia camphorata without purification) or 4-hydroxy-2,3-dimethoxy-6-methyl-5(3,7,11-trimethyl-dodeca-2,6,10-trienyl)-cyclohex-2-enone (the experiment group) were added into each of the 96 wells at the following concentrations: 30, 10, 3, 1, 0.3, 0.1 and 0.03 μg/ml, respectively. The cells were incubated at 37° C. in a 5% CO2 incubator for 48 hours.” for “plate.”

[5] = tested on: human breast-cancer cells, MDA-MB-231; test: In vitro Taxol add-on study (MTT), MDA-MB-231; settings: Homo sapiens, 0.0017 μg/ml Taxol + formula 2
Experimental: as §1

[6] = tested on: human prostate cancer cells, DU-145; test: In vitro survival assay (MTT), prostate cancer cells DU-145; settings: 48 hours incubation
Experimental: as §3
as §2, with “[…]” for “breast-cancer”, “LNCaP” for “MCF-7”, “DU-145,” for “MDA-MB-231”, “plate. Ethanol extracts of Antrodia camphorata (the control group, total extracts of Antrodia camphorata without purification) or 4-hydroxy-2,3-dimethoxy-6-methyl-5(3,7,11-trimethyl-dodeca-2,6,10-trienyl)-cyclohex-2-enone (the experiment group) were added into each of the 96 wells at the following concentrations: 30, 10, 3, 1, 0.3, 0.1 and 0.03 μg/ml, respectively. The cells were incubated at 37° C. in a 5% CO2 incubator for 48 hours.” for “plate.”

IC50 [1]: 0.009 mg/L | IC50 [3]: 0.515 mg/L | IC50 [5]: 0.011 mg/L
SMILES: COC1=C(OC)C(O)C(C/C=C(\C)CC/C=C(\C)CCC=C(C)C)C(C)C1=O (stereo not drawn) [formula 2, 4-hydroxy-2,3-dimethoxy-6-methyl-5(3,7,11-trimethyl-dodeca-2,6,10-trienyl)-cyclohex-2-enone]
IC50 [2]: 1.03 mg/L | IC50 [4]: 2.38 mg/L | IC50 [6]: 1.81 mg/L
